Numbered stars: 1 amine (or outer) side, 2 acyl side, 3 side chain; on linkers, the order of the positions; unused ones are H or OH. Square brackets hold non-standard residues; d marks the D form. Side chains are listed from the residue outwards. Peptide text beside a SMILES is read from it. * marks the point of attachment. C18 diacid = O=C(O)CCCCCCCCCCCCCCCCC(=O)*; γGlu = O=C(O)[C@H](CCC(=O)[*:2])N[*:1]; 1Nal = N[C@@H](Cc1cccc2ccccc12)C(=O)O; AEEA = NCCOCCOCC(=O)O; Aib = CC(C)(N)C(=O)O
Key:
human GLP-1R [1] = molecular target: T1, human GLP-1R (Homo sapiens, UniProt P43220); assay: Functional hGLP-1R cAMP assay in HEK-293 clonal cells; format: cell-based; conditions: HEK293; percent of maximal response of hGLP-1(7-36)NH2
T1 construct: expressed in transfected cells; host or cells: 293HEK, Hygromycin-selected; crude plasma membranes

[2] = Pharmacokinetics in cynomolgus monkeys; format: in vivo; conditions: cynomolgus monkey, plasma, single SC 0.2 mg/kg, male monkeys, n = 2
Protocol: The compounds are administered by a single intravenous or subcutaneous dose (0.2 mg/kg) in 20 mM citrate buffer (pH 7.0) at a volume of 0.21 ml/kg. Blood is collected from each animal at 2, 4, 8, 12, 24, 48, 72, 96, 120, 144, 168, 204, 240, and 312 hours post-dosage. The plasma concentrations of compounds of the present invention are determined by a LC/MS method. Briefly, a compound of the present invention is extracted from 100% Monkey plasma sample (50 μl) diluted with 1×PBS (150 μl) and mixed with N-butanol (400 μl). Three distinct liquid layers are formed with the compound located in the top layer. A volume of 200 μl is transferred to a v-bottom 96-well plate, dried down using heated Nitrogen gas and reconstituted with 100 μl of 30% acetonitrile/0.1% formic acid. 20 μl of the reconstituted sample is injected onto a Supelco Analytical Discovery bio wide C5 3 μm column. The column effluent is directed into a Thermo Q-Exactive mass spectrometer for detection and quantitation.

human GIP-R = molecular target: T2, human GIP-R (Homo sapiens, UniProt P48546); assay: Functional hGIP-R cAMP assay in HEK-293 clonal cells; conditions: HEK293, read-out: Human GIP-R Emax
T2 sequence (P48546 22-466): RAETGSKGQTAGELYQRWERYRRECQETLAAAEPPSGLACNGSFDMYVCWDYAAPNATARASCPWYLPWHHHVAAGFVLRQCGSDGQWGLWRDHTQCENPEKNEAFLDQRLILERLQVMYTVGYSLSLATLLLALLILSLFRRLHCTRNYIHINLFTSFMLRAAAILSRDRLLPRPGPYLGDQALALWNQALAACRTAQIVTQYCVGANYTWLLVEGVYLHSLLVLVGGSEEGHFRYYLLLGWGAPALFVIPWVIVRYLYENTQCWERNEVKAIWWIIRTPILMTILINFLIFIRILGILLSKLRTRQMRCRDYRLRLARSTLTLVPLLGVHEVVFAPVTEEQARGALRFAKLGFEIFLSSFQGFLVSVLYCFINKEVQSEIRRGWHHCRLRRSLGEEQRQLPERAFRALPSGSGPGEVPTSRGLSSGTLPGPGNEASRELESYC
Protocol: After an incubation of 60 minutes at room temperature, the resulting increase in intracellular cAMP is quantitatively determined using the CisBio cAMP Dynamic 2 HTRF Assay Kit (Bedford, Mass.). Briefly, cAMP levels within the cell are detected by adding the cAMP-d2 conjugate in cell lysis buffer (20 μl) followed by the antibody anti-cAMP-Eu^3+-Cryptate, also in cell lysis buffer (20 μl). The resulting competitive assay is incubated for at least 60 minutes at room temperature, then detected using a PerkinElmer Envision® instrument with excitation at 320 nm and emission at 665 nm and 620 nm Envision units (emission at 665 nm/620 nm*10,000) are inversely proportional to the amount of cAMP present and are converted to nM cAMP per well using a cAMP standard curve. […] A relative EC50 value and percent top (Emax) is derived by non-linear regression analysis using the percent maximal response versus the concentration of the compound of the present invention, fitted to a four-parameter logistic equation.

Human GCGR = Human GCGR (Homo sapiens, UniProt P47871); assay: Functional hGCGR cAMP assay in HEK-293 clonal cells
human GLP-1R [3] = molecular target: T1, human GLP-1R; format: binding
[4] = Rat in vivo insulin secretion following intravenous glucose (IVGTT); conditions: s.c. 16 hour prior to glucose
Protocol: Male Wistar rats (Harlan Labs, Indianapolis, Ind.) are randomized by body weight and dosed 1.5 ml/kg s.c. 16 hour prior to glucose administration and then fasted. Doses are vehicle, 0.1, 0.3, 1, 3 and 10 nmol/kg. Animals are weighed, and then anesthetized with sodium pentobarbital (Nembutal Sodium solution; Ovation Pharmaceuticals) dosed i.p. (65 mg/kg, 30 mg/ml). A time zero blood sample is collected into EDTA tubes after which glucose is administered ([…], 5 ml/kg). Blood samples are collected at 2, 4, 6, 10, 20, and 30 minutes post glucose. Plasma glucose levels are determined using a Hitachi analyzer (Roche) and plasma insulin is measured by the MSD insulin assay (Meso Scale, Gaithersburg, Md.).

[5] = Weight loss, body composition and hepatic steatosis in DIO mice; format: in vivo, mouse; conditions: for Blood Glucose: Day 15
Protocol: The effects on weight loss, body composition and hepatic steatosis in DIO mice for compounds of the present invention are evaluated in C57/BL6 DIO mice. […] Animals are individually housed in a temperature-controlled (24° C.) facility with a 12 hour light/dark cycle (lights on 22:00), and free access to food and water. […] Daily body weight and food intake are measured throughout the study. Absolute changes in body weight are calculated by subtracting the body weight of the same animal prior to the first injection of compound. […] On Day 15, blood glucose is measured with Accu-Chek glucometer (Roche) from tail vein blood and then animals may be sacrificed and livers removed and frozen. Liver triglycerides, determined from homogenates of livers collected at sacrifice, and plasma cholesterol are measured on a Hitachi Modular P clinical analyzer. Statistical comparisons between groups are done using one-way ANOVA followed by Dunnett's multiple comparison test. The ED50 for weight loss lowering is determined in GraphPad Prism using the non-linear fit tool.

mouse islets = assay: Mouse islet insulin secretion; format: cell-based; conditions: read-out: Mouse islet insulin secretion Mean ED50
Protocol: To assess action of compounds of the present invention in a system representing physiological GLP-1R and GIP-R expression levels insulin secretion, compounds are tested for effects on insulin secretion from wild-type rodent islets.
After common bile duct cannulation in male C57B1/6 mice (22-26 g) or male Sprague-Dawley rats (approx. 250 g), the pancreas is distended with Hank's buffer (3 ml for mice or 10 ml for rats, containing 2% BSA and 0.75 mg/ml Clzyme collagenase (VitaCyte). Subsequently, tissues are digested in Hank's buffer at 37° C. for 11-13 minutes (mice) or 14-16 minutes for rat pancreata. Purified islets (Histopaque-1100 gradient [Sigma-Aldrich], […] at 750× gravity) are cultured overnight in RPMI-1640 medium (Invitrogen) containing 10% FBS, 100 U/ml penicillin and 100 μg/ml streptomycin, and preconditioned by starvation in Earle's Balanced Salt Solution (EBSS) supplemented with 0.1% BSA and 2.8 mM glucose. Subsequently, islets are incubated in EBSS (Invitrogen) supplemented with 0.1% BSA, 2.8-11.2 mM glucose and increasing levels of compound (6 batches of 4 islets/condition). GLP-1(7-36)amide (30 nM) is used as a positive control. Insulin is measured over 90 minutes in supernatant using the MSD Insulin Assay (Meso Scale, Gaithersburg, Md.).

T1 sequence (P43220 24-463): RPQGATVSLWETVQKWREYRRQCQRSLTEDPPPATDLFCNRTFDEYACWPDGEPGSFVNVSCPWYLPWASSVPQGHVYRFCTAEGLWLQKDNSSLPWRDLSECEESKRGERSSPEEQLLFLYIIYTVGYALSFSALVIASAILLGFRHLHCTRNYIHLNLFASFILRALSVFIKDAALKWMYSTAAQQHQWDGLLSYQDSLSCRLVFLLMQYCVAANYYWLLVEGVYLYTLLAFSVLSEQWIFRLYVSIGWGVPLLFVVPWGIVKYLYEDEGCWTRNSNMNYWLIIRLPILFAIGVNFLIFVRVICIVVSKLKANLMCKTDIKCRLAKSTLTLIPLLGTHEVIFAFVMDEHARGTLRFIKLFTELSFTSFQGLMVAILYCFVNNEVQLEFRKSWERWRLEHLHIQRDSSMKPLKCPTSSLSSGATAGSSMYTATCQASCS
Sequence of Human GCGR (P47871 26-477): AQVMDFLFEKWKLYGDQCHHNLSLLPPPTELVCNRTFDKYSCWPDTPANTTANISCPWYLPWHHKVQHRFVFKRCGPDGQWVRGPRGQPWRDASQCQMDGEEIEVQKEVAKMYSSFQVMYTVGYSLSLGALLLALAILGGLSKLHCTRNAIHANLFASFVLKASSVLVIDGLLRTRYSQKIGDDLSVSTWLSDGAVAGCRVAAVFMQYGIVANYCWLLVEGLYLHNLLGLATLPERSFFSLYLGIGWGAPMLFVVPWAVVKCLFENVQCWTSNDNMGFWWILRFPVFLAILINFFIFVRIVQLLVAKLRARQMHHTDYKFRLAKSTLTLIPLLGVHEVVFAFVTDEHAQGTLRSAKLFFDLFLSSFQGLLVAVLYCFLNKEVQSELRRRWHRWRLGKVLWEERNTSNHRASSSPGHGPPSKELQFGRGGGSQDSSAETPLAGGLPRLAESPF

CC[C@H](C)[C@H](NC(=O)[C@H](CC(C)C)NC(=O)[C@H](Cc1c[nH]c2ccccc12)NC(=O)[C@H](CCC(N)=O)NC(=O)[C@@H](NC(=O)[C@H](Cc1cccc2ccccc12)NC(=O)[C@H](C)NC(=O)[C@H](CCCCNC(=O)COCCOCCNC(=O)COCCOCCNC(=O)CC[C@H](NC(=O)CCCCCCCCCCCCCCCCC(=O)O)C(=O)O)NC(=O)[C@H](CCC(N)=O)NC(=O)[C@H](C)NC(=O)[C@@H](NC(=O)[C@H](CCCCN)NC(=O)[C@H](CC(=O)O)NC(=O)[C@H](CC(C)C)NC(=O)C(C)(C)NC(=O)[C@@H](NC(=O)[C@H](CO)NC(=O)[C@H](Cc1ccc(O)cc1)NC(=O)[C@H](CC(=O)O)NC(=O)[C@H](CO)NC(=O)[C@@H](NC(=O)[C@H](Cc1ccccc1)NC(=O)[C@@H](NC(=O)CNC(=O)[C@H](CCC(=O)O)NC(=O)C(C)(C)NC(=O)[C@@H](N)Cc1ccc(O)cc1)[C@@H](C)O)[C@@H](C)O)[C@@H](C)CC)[C@@H](C)CC)C(C)C)C(=O)N[C@@H](C)C(=O)NCC(=O)NCC(=O)N1CCC[C@H]1C(=O)N[C@@H](CO)C(=O)N[C@@H](CO)C(=O)NCC(=O)N[C@@H](C)C(=O)N1CCC[C@H]1C(=O)N1CCC[C@H]1C(=O)N1CCC[C@H]1C(=O)N[C@@H](CO)C(N)=O [Example 6] (H-Y[Aib]EGTFTSDYSI[Aib]LDKIAQK([AEEA-AEEA-γGlu-C18 diacid])A[1Nal]VQWLIAGGPSSGAPPPS-NH2)
Emax (human GLP-1R [1]): 104 ± 4% | CL/F [2]: 2.8 mL/h/kg | Cmax [2]: 2200 ng/mL | AUC(0-inf) ([2]; read-out: Mean AUC0-inf): 72300 ng·h/mL | half-life ([2]; read-out: Mean T1/2 (converted)): 1380 min | Tmax ([2]; read-out: Mean Tmax): 4 h | Emax (human GIP-R): 106 ± 3% | EC50 (Human GCGR): > 1000 nM | Molar ratio of hGLP-1R/hGIP-R (human GLP-1R [3]; normalized by factor 4.53 from native GIP and GLP-1 binding): 1.83 | Absolute ratio of hGLP-1R/hGIP-R (human GLP-1R [3]; ratio of Ki values): 8.3 | % max increase of insulin AUC [4]: 289 +/− 4% | ED50 for insulin, rat IVGTT [4]: 2.58 nmol/kg | % Change from starting body weight ([5]; Table 8, 10 nmol/kg): −15.31 ± 1.25 % | % Change from starting fat mass ([5]; Table 8, 10 nmol/kg): −24.75 ± 1.89 % | % Change from starting body weight ([5]; Table 8, 30 nmol/kg): −21.62 ± 0.92 % | % Change from starting fat mass ([5]; Table 8, 30 nmol/kg): −36.30 ± 2.47 % | % Change from starting body weight ([5]; Table 8, 100 nmol/kg): −33.95 ± 1.93 % | % Change from starting fat mass ([5]; Table 8, 100 nmol/kg): −64.64 ± 4.04 % | % Change from starting body weight ([5]; Table 10, 10 nmol/kg): −17.54 ± 1.17 % | % Change from starting fat mass ([5]; Table 10, 10 nmol/kg): −34.30 ± 1.20 % | % Change from starting body weight ([5]; Table 10, 30 nmol/kg): −19.52 ± 1.18 % | % Change from starting fat mass ([5]; Table 10, 30 nmol/kg): −39.52 ± 3.18 % | % Change from starting body weight ([5]; Table 10, 100 nmol/kg): −29.36 ± 2.62 % | % Change from starting fat mass ([5]; Table 10, 100 nmol/kg): −56.66 ± 4.96 % | Plasma Cholesterol ([5]; Table 11, 10 nmol/kg): 198.4 ± 6.76 mg/dL | Plasma Triglycerides ([5]; Table 11, 10 nmol/kg): 20.78 ± 4.40 mg/dL | Blood Glucose ([5]; Table 11, 10 nmol/kg): 105.8 ± 2.10 mg/dL | Plasma Cholesterol ([5]; Table 11, 30 nmol/kg): 186.4 ± 17.04 mg/dL | Plasma Triglycerides ([5]; Table 11, 30 nmol/kg): 26.12 ± 6.85 mg/dL | Blood Glucose ([5]; Table 11, 30 nmol/kg): 100.1 ± 3.29 mg/dL | Plasma Cholesterol ([5]; Table 11, 100 nmol/kg): 151.4 ± 14.32 mg/dL | Plasma Triglycerides ([5]; Table 11, 100 nmol/kg): 17.26 ± 1.67 mg/dL | Blood Glucose ([5]; Table 11, 100 nmol/kg): 103.6 ± 3.20 mg/dL | Plasma Cholesterol ([5]; Table 13, 10 nmol/kg): 167.8 ± 15.59 mg/dL | Blood Glucose ([5]; Table 13, 10 nmol/kg): 121.4 ± 2.74 mg/dL | Plasma Cholesterol ([5]; Table 13, 30 nmol/kg): 159.8 ± 9.99 mg/dL | Blood Glucose ([5]; Table 13, 30 nmol/kg): 121.9 ± 6.65 mg/dL | Plasma Cholesterol ([5]; Table 13, 100 nmol/kg): 144.2 ± 7.12 mg/dL | Blood Glucose ([5]; Table 13, 100 nmol/kg): 116.1 ± 4.67 mg/dL | EC50 (mouse islets): 51.4 nM

Source: patent US9474780B2, “GIP and GLP-1 co-agonist compounds” (Eli Lilly and Company, priority 2015, dated 2016)
